Assay results taken from ChEMBL document CHEMBL4507293 (2021).

How the values were obtained:
[1] = tested on: Epidermal growth factor receptor (Homo sapiens), P00533 [UNDEFINED MUTATION]; conditions: Compound concentration 100.0 nM
[2] = target: Dual specificity mitogen-activated protein kinase kinase 3 (Homo sapiens) (UniProt P46734); conditions: Compound concentration 100.0 nM
[3] = target: Mitogen-activated protein kinase kinase kinase kinase 5 (Homo sapiens) (UniProt Q9Y4K4); conditions: Compound concentration 100.0 nM
Sequence of Mitogen-activated protein kinase kinase kinase kinase 5 (Homo sapiens) (Q9Y4K4 whole entry, looked up): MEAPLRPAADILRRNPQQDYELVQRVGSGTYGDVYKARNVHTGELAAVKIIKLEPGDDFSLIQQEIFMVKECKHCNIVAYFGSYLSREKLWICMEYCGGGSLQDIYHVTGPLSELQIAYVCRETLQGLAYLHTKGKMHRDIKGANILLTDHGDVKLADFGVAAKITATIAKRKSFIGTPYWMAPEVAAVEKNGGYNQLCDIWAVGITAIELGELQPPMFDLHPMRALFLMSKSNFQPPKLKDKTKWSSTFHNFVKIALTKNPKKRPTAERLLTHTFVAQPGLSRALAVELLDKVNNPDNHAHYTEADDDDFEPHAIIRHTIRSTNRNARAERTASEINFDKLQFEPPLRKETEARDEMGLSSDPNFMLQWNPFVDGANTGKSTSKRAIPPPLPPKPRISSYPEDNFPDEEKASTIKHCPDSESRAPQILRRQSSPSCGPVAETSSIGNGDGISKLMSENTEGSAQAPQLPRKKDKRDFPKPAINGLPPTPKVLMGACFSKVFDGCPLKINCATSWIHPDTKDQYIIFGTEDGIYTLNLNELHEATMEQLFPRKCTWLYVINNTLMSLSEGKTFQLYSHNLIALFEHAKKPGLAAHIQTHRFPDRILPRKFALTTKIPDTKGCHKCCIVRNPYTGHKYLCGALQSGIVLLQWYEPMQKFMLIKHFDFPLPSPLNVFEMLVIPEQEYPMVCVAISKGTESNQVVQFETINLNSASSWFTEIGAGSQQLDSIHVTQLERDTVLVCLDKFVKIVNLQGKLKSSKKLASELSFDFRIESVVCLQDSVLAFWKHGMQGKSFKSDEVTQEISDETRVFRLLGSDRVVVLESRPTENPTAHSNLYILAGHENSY

[4] = target: Activin receptor type-2A (Homo sapiens) (UniProt P27037); conditions: Compound concentration 100.0 nM
[5] = target: Tyrosine-protein kinase HCK (Homo sapiens) (UniProt P08631); conditions: Compound concentration 100.0 nM
[6] = target: Mitogen-activated protein kinase kinase kinase 10 (Homo sapiens) (UniProt Q02779); conditions: Compound concentration 100.0 nM
[7] = target: Myosin light chain kinase 2, skeletal/cardiac muscle (Homo sapiens) (UniProt Q9H1R3); conditions: Compound concentration 100.0 nM
Sequence of Myosin light chain kinase 2, skeletal/cardiac muscle (Homo sapiens) (Q9H1R3 whole entry): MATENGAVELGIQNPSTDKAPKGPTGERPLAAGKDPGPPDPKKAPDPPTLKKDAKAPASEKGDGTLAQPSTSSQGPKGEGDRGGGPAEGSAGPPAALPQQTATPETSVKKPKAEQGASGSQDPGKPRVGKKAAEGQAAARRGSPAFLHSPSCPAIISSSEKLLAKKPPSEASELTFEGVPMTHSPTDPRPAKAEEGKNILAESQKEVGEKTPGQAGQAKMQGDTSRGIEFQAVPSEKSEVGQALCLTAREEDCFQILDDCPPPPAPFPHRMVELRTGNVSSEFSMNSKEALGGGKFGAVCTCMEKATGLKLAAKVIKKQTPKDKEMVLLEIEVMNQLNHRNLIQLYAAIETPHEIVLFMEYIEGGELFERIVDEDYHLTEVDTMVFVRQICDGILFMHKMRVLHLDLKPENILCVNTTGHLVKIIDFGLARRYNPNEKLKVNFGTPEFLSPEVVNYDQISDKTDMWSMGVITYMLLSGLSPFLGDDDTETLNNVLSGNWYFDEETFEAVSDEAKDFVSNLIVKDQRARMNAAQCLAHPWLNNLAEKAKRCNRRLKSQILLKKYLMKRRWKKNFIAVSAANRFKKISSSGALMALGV

[8] = target: Glycogen synthase kinase-3 alpha (Homo sapiens) (UniProt P49840); conditions: Compound concentration 100.0 nM
Sequence of Glycogen synthase kinase-3 alpha (Homo sapiens) (P49840 2-483 limits assumed): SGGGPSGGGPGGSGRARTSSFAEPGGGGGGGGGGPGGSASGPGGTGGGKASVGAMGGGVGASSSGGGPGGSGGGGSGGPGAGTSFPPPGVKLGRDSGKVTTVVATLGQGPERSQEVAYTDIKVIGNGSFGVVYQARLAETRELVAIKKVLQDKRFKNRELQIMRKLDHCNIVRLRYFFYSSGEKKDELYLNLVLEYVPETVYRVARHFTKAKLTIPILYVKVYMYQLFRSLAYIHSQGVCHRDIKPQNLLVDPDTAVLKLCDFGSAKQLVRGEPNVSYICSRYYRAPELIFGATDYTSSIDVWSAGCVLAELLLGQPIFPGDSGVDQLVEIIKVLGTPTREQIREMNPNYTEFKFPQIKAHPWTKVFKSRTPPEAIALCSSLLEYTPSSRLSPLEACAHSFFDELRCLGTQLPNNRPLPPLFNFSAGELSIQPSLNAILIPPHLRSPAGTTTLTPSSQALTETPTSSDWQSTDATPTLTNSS

[9] = tested on: Receptor-type tyrosine-protein kinase FLT3 (Homo sapiens), P36888 [K663Q]; conditions: Compound concentration 100.0 nM
[10] = target: RAC-alpha serine/threonine-protein kinase (Homo sapiens) (UniProt P31749); conditions: Compound concentration 100.0 nM
[11] = target: Mitogen-activated protein kinase kinase kinase 14 (Homo sapiens) (UniProt Q99558); conditions: Compound concentration 100.0 nM
[12] = target: Tyrosine-protein kinase receptor Tie-1 (Homo sapiens) (UniProt P35590); conditions: Compound concentration 100.0 nM
[13] = tested on: Receptor-type tyrosine-protein kinase FLT3 (Homo sapiens), P36888 [UNDEFINED MUTATION]; conditions: Compound concentration 100.0 nM
[14] = target: Atypical kinase COQ8A, mitochondrial (Homo sapiens) (UniProt Q8NI60); conditions: Compound concentration 100.0 nM
[15] = target: ALK tyrosine kinase receptor (Homo sapiens) (UniProt Q9UM73); conditions: Compound concentration 100.0 nM
[16] = tested on: Epidermal growth factor receptor (Homo sapiens), P00533 [L861Q]; conditions: Compound concentration 100.0 nM
[17] = target: Casein kinase I isoform alpha (Homo sapiens) (UniProt P48729); conditions: Compound concentration 100.0 nM
[18] = target: Macrophage-stimulating protein receptor (Homo sapiens) (UniProt Q04912); conditions: Compound concentration 100.0 nM
[19] = target: Death-associated protein kinase 1 (Homo sapiens) (UniProt P53355); conditions: Compound concentration 100.0 nM
Sequence of Death-associated protein kinase 1 (Homo sapiens) (P53355 whole entry, looked up, the tested form may be a part): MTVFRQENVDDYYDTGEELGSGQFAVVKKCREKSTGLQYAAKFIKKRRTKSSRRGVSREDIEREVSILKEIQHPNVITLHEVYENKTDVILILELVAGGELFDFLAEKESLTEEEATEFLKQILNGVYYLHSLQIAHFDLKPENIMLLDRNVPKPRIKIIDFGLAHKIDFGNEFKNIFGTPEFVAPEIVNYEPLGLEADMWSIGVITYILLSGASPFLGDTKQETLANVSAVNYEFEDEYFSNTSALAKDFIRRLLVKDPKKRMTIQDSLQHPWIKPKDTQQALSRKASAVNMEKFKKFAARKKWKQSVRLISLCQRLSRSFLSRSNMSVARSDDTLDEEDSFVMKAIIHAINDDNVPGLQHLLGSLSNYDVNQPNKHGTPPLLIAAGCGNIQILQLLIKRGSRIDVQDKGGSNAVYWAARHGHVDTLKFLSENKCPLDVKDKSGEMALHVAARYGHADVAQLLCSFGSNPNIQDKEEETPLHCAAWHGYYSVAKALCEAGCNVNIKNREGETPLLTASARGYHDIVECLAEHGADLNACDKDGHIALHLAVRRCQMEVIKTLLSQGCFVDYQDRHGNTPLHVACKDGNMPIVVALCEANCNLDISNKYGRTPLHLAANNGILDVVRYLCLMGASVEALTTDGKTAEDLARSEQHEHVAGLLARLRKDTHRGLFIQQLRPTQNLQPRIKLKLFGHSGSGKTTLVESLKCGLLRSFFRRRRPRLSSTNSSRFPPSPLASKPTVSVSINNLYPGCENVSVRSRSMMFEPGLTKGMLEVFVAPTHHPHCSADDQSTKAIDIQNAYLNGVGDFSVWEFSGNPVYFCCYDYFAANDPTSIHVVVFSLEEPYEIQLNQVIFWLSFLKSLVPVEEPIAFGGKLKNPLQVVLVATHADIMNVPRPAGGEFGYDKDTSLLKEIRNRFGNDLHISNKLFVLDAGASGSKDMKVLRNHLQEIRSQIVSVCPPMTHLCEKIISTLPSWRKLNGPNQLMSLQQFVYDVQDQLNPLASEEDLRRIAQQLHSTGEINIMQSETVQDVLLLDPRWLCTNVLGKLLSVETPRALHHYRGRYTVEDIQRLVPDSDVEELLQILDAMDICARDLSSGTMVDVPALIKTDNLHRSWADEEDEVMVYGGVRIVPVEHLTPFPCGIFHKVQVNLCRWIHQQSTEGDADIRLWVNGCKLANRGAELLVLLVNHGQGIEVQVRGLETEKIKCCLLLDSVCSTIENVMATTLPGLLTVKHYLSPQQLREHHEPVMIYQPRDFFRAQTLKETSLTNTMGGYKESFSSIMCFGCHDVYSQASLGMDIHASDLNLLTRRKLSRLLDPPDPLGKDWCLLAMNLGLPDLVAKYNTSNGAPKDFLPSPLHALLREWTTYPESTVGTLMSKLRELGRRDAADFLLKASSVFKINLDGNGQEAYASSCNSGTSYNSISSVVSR

[20] = target: Discoidin domain-containing receptor 2 (Homo sapiens) (UniProt Q16832); conditions: Compound concentration 100.0 nM
[21] = target: Myotonin-protein kinase (Homo sapiens) (UniProt Q09013); conditions: Compound concentration 100.0 nM
[22] = tested on: Mast/stem cell growth factor receptor Kit (Homo sapiens), P10721 [D816H]; conditions: Compound concentration 100.0 nM
Sequence of Mast/stem cell growth factor receptor Kit (Homo sapiens), P10721 [D816H] (P10721 whole entry D816H): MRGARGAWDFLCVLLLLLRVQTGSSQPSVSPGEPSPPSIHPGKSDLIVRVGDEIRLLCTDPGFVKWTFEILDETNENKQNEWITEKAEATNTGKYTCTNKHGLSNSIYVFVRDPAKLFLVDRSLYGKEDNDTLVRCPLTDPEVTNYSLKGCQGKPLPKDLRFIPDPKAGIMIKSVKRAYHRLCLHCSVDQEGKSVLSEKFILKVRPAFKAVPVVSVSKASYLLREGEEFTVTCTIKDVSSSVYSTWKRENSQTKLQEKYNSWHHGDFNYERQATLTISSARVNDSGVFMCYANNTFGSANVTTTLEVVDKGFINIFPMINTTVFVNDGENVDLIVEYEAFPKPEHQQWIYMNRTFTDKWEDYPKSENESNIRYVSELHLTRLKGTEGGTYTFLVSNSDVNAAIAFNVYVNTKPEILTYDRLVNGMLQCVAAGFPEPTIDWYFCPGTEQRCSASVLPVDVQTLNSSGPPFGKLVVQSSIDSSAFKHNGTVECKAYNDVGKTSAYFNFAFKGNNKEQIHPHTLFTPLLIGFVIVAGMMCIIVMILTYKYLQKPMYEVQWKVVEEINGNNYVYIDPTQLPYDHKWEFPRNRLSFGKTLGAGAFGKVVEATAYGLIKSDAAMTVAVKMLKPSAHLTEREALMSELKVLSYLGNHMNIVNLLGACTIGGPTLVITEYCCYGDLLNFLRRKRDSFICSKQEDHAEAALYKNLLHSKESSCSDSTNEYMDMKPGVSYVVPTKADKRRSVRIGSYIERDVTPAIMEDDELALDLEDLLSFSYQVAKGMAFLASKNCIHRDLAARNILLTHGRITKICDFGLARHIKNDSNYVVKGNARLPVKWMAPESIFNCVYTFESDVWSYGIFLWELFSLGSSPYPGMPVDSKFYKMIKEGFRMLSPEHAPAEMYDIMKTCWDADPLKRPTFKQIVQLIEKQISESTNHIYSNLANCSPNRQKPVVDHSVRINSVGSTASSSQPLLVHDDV

[23] = target: Mitogen-activated protein kinase 4 (Homo sapiens) (UniProt P31152); conditions: Compound concentration 100.0 nM
[24] = target: High affinity cGMP-specific 3',5'-cyclic phosphodiesterase 9A (Homo sapiens, UniProt O76083); assay: Biochemical assay (PDE9A)
[25] = target: Myosin light chain kinase family member 4 (Homo sapiens) (UniProt Q86YV6); conditions: Compound concentration 100.0 nM
[26] = target: Bone morphogenetic protein receptor type-1B (Homo sapiens) (UniProt O00238); conditions: Compound concentration 100.0 nM
[27] = target: Serine/threonine-protein kinase Nek3 (Homo sapiens) (UniProt P51956); conditions: Compound concentration 100.0 nM
Sequence of Serine/threonine-protein kinase Nek3 (Homo sapiens) (P51956 whole entry): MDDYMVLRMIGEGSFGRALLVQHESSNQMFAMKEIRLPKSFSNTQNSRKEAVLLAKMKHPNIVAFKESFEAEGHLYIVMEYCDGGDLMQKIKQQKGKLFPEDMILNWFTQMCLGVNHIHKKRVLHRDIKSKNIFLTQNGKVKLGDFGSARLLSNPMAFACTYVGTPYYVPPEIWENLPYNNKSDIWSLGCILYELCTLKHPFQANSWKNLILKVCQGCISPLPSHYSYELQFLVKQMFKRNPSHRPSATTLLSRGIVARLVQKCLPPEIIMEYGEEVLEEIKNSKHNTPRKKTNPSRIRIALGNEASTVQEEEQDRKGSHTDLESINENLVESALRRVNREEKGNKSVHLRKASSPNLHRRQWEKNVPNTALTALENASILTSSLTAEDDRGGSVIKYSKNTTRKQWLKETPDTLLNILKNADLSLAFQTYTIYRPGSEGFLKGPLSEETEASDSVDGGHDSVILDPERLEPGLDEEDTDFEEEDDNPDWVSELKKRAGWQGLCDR

[28] = target: Serine/threonine-protein kinase 33 (Homo sapiens) (UniProt Q9BYT3); conditions: Compound concentration 100.0 nM
[29] = target: Ephrin type-B receptor 1 (Homo sapiens) (UniProt P54762); conditions: Compound concentration 100.0 nM
[30] = target: T1, Muscarinic acetylcholine receptor M4 (Homo sapiens) (UniProt P08173); conditions: Compound concentration 10.0 uM
T1 sequence (whole entry): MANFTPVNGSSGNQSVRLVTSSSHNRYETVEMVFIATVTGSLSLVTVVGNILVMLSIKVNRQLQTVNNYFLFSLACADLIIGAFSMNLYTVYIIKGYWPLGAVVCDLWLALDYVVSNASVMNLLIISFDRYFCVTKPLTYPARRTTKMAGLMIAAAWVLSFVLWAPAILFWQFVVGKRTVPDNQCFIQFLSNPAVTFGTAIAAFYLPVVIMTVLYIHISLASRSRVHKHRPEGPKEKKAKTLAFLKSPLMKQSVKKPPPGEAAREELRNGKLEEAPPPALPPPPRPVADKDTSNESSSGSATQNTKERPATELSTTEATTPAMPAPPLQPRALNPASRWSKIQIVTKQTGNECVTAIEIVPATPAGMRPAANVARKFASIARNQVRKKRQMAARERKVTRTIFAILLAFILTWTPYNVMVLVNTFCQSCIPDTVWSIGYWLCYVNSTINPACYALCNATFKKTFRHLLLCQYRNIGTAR

[31] = target: Mitogen-activated protein kinase kinase kinase kinase 3 (Homo sapiens) (UniProt Q8IVH8); conditions: Compound concentration 100.0 nM
[32] = tested on: Phosphatidylinositol 4,5-bisphosphate 3-kinase catalytic subunit alpha isoform (Homo sapiens), P42336 [M1043I]; conditions: Compound concentration 100.0 nM
[33] = target: T2, 5-hydroxytryptamine receptor 1A (Homo sapiens) (UniProt P08908); conditions: Compound concentration 10.0 uM
T2 sequence (whole entry): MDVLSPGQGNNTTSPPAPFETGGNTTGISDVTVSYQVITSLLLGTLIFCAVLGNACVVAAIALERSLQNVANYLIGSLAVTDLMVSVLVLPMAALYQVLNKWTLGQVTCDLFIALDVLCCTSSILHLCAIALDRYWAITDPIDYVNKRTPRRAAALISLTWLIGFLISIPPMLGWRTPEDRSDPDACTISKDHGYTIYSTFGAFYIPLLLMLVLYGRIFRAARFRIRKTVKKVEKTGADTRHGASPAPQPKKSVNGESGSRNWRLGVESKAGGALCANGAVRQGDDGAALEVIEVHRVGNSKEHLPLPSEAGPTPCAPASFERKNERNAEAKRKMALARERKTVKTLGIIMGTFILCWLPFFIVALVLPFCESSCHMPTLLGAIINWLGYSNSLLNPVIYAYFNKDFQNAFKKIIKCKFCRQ

## CC(C)CC(=O)N1CCc2nc(-c3ccc(Br)cc3)nc(N(C)Cc3ccccc3)c2C1 [THPP-1-NC]
[1]
  residual activity: 100%
[2]
  residual activity: 100%
[3]
  residual activity: 93%
[4]
  residual activity: 97%
[5]
  residual activity: 94%
[6]
  residual activity: 96%
[7]
  residual activity: 96%
[8]
  residual activity: 100%
[9]
  residual activity: 100%
[10]
  residual activity: 92%
[11]
  residual activity: 100%
[12]
  residual activity: 100%
[13]
  residual activity: 68%
[14]
  residual activity: 100%
[15]
  residual activity: 91%
[16]
  residual activity: 100%
[17]
  residual activity: 73%
[18]
  residual activity: 100%
[19]
  residual activity: 100%
[20]
  residual activity: 97%
[21]
  residual activity: 87%
[22]
  residual activity: 71%
[23]
  residual activity: 100%
[24]
  Ki: > 54.6 µM (not active)
[25]
  residual activity: 100%
[26]
  residual activity: 100%
[27]
  residual activity: 100%
[28]
  residual activity: 74%
[29]
  residual activity: 100%
[30]
  inhibition: 3.58%
[31]
  residual activity: 95%
[32]
  residual activity: 53%
[33]
  inhibition: -0.56%

## COCCOc1nc(-c2ccc(Cl)nc2)nc2c1CN(C(=O)c1ncn3ccccc13)CC2 [THPP-1]
[1]
  residual activity: 85%
[2]
  residual activity: 93%
[3]
  residual activity: 91%
[4]
  residual activity: 98%
[5]
  residual activity: 100%
[6]
  residual activity: 100%
[7]
  residual activity: 94%
[8]
  residual activity: 100%
[9]
  residual activity: 100%
[10]
  residual activity: 82%
[11]
  residual activity: 100%
[12]
  residual activity: 100%
[13]
  residual activity: 64%
[14]
  residual activity: 100%
[15]
  residual activity: 91%
[16]
  residual activity: 99%
[17]
  residual activity: 98%
[18]
  residual activity: 100%
[19]
  residual activity: 100%
[20]
  residual activity: 100%
[21]
  residual activity: 72%
[22]
  residual activity: 68%
[23]
  residual activity: 100%
[24]
  Ki: > 50 µM (not active)
[25]
  residual activity: 100%
[26]
  residual activity: 100%
[27]
  residual activity: 100%
[28]
  residual activity: 53%
[29]
  residual activity: 100%
[30]
  inhibition: 2%
[31]
  residual activity: 100%
[32]
  residual activity: 88%
[33]
  inhibition: -0.41%
